These are literature values, as cited in US20170037184A1, “VITAMIN E-BASED NANOCARRIERS FOR DRUG DELIVERY AND METHODS OF MAKING AND USING THE SAME” (THE CORPORATION OF MERCER UNIVERSITY, priority 2014, published 2017).

For this series the following is noted: ethylenediamine group of DET conjugated to polyasparagine.

Molecules are shown by their SMILES.

Take `NCCNCCN` [DET, diethylenetriamine]: the pKa1 was 9.5 and the pKa2 was 6.0.
